In US20080026996A1, “Selective Vpac2 Receptor Reptide Agonists” (ELI LILLY AND COMPANY, priority 2004, published 2008):
Read-outs that look alike come from different tables or passages of the source. Where no end group is shown, it is not given here. [ ]: non-standard residue; d: D form. The star is where a group is joined. Met(O) = CS(=O)CC[C@H](N)C(=O)O; Hexanoyl = CCCCCC(=O)*; Aib = CC(C)(N)C(=O)O

T1: human VPAC1 (Homo sapiens, UniProt P32241)
T1 sequence (P32241 31-457): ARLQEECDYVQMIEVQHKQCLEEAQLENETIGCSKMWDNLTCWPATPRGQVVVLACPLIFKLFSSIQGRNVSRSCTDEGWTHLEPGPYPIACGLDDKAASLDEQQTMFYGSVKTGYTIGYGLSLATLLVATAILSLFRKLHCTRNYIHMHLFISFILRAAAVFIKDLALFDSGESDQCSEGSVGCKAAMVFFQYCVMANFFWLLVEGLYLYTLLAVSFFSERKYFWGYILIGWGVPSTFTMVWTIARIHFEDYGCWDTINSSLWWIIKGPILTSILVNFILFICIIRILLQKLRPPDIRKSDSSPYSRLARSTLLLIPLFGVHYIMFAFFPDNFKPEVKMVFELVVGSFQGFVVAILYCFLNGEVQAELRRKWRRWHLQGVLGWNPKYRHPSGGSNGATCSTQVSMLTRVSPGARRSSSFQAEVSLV

T2: human VPAC2 (Homo sapiens, UniProt P41587)
T2 construct: expressed in transfected cells
T2 sequence (P41587 24-438): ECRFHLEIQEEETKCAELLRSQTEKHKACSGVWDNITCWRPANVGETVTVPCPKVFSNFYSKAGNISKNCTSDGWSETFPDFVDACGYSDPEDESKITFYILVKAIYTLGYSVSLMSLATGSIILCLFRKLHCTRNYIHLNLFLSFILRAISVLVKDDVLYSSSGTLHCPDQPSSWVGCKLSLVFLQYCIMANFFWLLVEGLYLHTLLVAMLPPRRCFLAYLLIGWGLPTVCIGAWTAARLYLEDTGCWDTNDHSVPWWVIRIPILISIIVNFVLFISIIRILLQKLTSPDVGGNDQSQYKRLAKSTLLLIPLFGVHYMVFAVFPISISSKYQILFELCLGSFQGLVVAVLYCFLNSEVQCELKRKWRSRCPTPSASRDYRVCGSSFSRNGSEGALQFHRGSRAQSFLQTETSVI

T3: human PAC1 (Homo sapiens, UniProt P41586)
T3 sequence (P41586 21-468): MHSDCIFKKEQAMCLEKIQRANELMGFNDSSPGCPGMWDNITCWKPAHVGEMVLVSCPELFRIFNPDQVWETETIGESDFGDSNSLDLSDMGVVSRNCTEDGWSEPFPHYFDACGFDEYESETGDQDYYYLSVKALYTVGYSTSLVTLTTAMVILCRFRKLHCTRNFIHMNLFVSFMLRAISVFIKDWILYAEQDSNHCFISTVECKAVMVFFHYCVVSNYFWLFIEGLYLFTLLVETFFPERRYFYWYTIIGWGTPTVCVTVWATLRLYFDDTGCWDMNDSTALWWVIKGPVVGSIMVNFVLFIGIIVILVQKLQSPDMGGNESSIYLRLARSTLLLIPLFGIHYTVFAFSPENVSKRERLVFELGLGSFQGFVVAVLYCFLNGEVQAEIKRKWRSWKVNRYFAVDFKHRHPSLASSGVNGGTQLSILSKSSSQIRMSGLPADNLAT

T4: human VPAC2 receptor (human, UniProt P41587 24-438)
T4 sequence (looked up): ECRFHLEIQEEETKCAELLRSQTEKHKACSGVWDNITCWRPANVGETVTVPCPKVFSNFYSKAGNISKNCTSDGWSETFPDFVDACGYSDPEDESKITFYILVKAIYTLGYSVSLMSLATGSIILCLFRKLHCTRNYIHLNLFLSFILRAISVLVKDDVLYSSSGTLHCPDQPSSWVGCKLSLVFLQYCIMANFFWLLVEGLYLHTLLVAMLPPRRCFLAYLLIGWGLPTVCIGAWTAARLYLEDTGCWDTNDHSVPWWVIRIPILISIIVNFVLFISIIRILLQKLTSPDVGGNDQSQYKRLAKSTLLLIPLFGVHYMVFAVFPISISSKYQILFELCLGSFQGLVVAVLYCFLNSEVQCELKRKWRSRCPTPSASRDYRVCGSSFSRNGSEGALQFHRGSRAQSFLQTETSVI


Key:
human VPAC1 = target: T1, human VPAC1; assay: Filter binding assay, membranes of cells transiently transfected with human VPAC1, 125I-labeled VIP tracer (Table 2); parameters: expressed in transfected cells
Procedure: (§1) For this assay, the solutions and equipment include:
(§2) Presoak solution: 0.5% Polyethyleneamine in Aqua dest.
(§3) Buffer for flushing filter plates: 25 mM HEPES pH 7.4
(§4) Blocking buffer: 25 mM HEPES pH 7.4; 0.2% protease free BSA
(§5) Assay buffer: 25 mM HEPES pH 7.4; 0.5% protease free BSA
(§6) Dilution and assay plate: PS-Microplate, U form
(§7) Filtration Plate Multiscreen FB Opaque Plate; […] Type B Glasfiber filter
(§8) In order to prepare the filter plates, aspirate the presoak solution by vacuum filtration. Flush the plates twice with 200 μL flush buffer. Add 200 μL blocking buffer to the filter plate. The filter plate is then incubated […] for 1 hour at room temperature.
(§9) Fill the assay plate with 25 μL assay buffer, 25 μL membranes (2.5 μg) suspended in assay buffer, 25 μL compound (agonist) in assay buffer, and 25 μL tracer (about 40000 cpm) in assay buffer. Incubate the filled plate for 1 hour with shaking.
(§10) Conduct the transfer from assay plate to filter plate. Aspirate the blocking buffer by vacuum filtration and wash two times with flush buffer. Transfer 90 μL from the assay plate to the filter plate. Aspirate the 90 μL transferred from assay plate and wash three times with 200 μL flush buffer. Remove the plastic support. Dry for 1 hour at 60° C. Add 30 μL Microscint. Perform the count.

human VPAC2 [1] = target: T2, human VPAC2; assay: Alpha screen cAMP in vitro potency, human VPAC2 receptor; assay type: cell-based; details: cAMP generation; single result from two analyses performed in a single run; read-out: Human VPAC2 Receptor: Alpha Screen EC50
Procedure: Alpha screen: Cells are washed in the culture flask once with PBS. Then, the cells are rinsed with enzyme free dissociation buffer. The dissociated cells are removed. The cells are then spun down and washed in stimulation buffer. For each data point, 50,000 cells suspended in stimulation buffer are used. To this buffer, Alpha screen acceptor beads are added along with the stimuli. This mixture is incubated for 60 minutes. Lysis buffer and Alpha screen donor beads are added and are incubated for 60 to 120 minutes. The Alpha screen signal (indicative of intracellular cAMP levels) is read in a suitable instrument (e.g. AlphaQuest from Perkin-Elmer). Steps including Alpha screen donor and acceptor beads are performed in reduced light.

human VPAC2 [2] = target: T2, human VPAC2; assay: Filter binding assay, membranes of stable VPAC2 cell line, 125I-labeled VIP tracer (Table 2)
Procedure: as §1, §2, §3, §4, §5, §6, §7, §8, §9, §10

human PAC1 = target: T3, human PAC1; assay: Filter binding assay, membranes of cells transiently transfected with human PAC1, 125I-labeled PACAP-27 tracer (Table 2); parameters: expressed in transfected cells
Procedure: as §1, §2, §3, §4, §5, §6, §7, §8, §9, §10

human VPAC2 receptor = target: T4, human VPAC2 receptor; assay: cell-based or functional assay
[3] = read-out: Human VPAC1 Receptor Binding
[4] = read-out: Human VPAC2 Receptor Binding
[5] = read-out: Human PAC1 Receptor Binding

Molecule | IC50 (human VPAC1; [3]) | IC50 (human VPAC2 [2]; [4]) | IC50 (human PAC1; [5]) | other results
Hexanoyl-HSDAVFTDNYTRLRKQVAAKKYLQS[Aib]KNKRYGGPSSGAPPPS [Agonist P188] | 6.19 nM | 0.29 nM | 700 nM | EC50 (human VPAC2 [1]): 0.32 nM
Hexanoyl-HSDAVFTDNYTRLRKQVAAKKYLQFIKNKRYGGPSSGAPPPS [Agonist P112] | 193 nM | 0.49 nM | 164 nM | EC50 (human VPAC2 [1]): 0.16 nM
CCCCCC(=O)N[C@@H](Cc1c[nH]cn1)C(=O)N[C@@H](CO)C(=O)N[C@@H](CC(=O)O)C(=O)N[C@@H](C)C(=O)N[C@H](C(=O)N[C@@H](Cc1ccccc1)C(=O)N[C@H](C(=O)N[C@@H](CC(=O)O)C(=O)N[C@@H](CC(N)=O)C(=O)N[C@@H](Cc1ccc(O)cc1)C(=O)N[C@H](C(=O)N[C@@H](CCCNC(=N)N)C(=O)N[C@@H](CC(C)C)C(=O)N[C@@H](CCCNC(=N)N)C(=O)N[C@@H](CCCCN)C(=O)N[C@@H](CCC(N)=O)C(=O)NC(C)(C)C(=O)N[C@@H](C)C(=O)N[C@@H](C)C(=O)N[C@@H](CCCCN)C(=O)N[C@@H](CCCCN)C(=O)N[C@@H](Cc1ccc(O)cc1)C(=O)N[C@@H](CC(C)C)C(=O)N[C@@H](CCC(N)=O)C(=O)N[C@@H](CO)C(=O)N[C@H](C(=O)N[C@@H](CCCCN)C(=O)N[C@@H](CC(N)=O)C(=O)N[C@@H](CCCCN)C(=O)N[C@@H](CCCNC(=N)N)C(=O)N[C@@H](Cc1ccc(O)cc1)C(=O)NCC(=O)NCC(=O)N1CCC[C@H]1C(=O)N[C@@H](CO)C(=O)N[C@@H](CO)C(=O)NCC(=O)N[C@@H](C)C(=O)N1CCC[C@H]1C(=O)N1CCC[C@H]1C(=O)N1CCC[C@H]1C(=O)N[C@@H](CO)C(=O)O)[C@@H](C)CC)[C@@H](C)O)[C@@H](C)O)C(C)C [Agonist P189] | 6.87 nM | 0.2 nM | 303 nM | 
Hexanoyl-HSDAVFTDNYTRLRKQVAAKKLLQSIKNKRYGGPSSGAPPPS [Agonist P132] | 617 nM | 1.51 nM | 1020 nM | 
[dH]SDAVFTDNYTRLRKQVAAKKYLQSIKNKRYGGPSSGAPPPS [Agonist P84] | 469 nM | 20 nM |  | 
Hexanoyl-HSDAVFTDNYTRLRKQVAAKKYLQSWKNKRYGGPSSGAPPPS [Agonist P110] | 425 nM | 0.1 nM | 321 nM | EC50 (human VPAC2 [1]): 0.13 nM
Hexanoyl-HSDAVFTLNYTRLRKQVAAKKYLQSIKNKRYGGPSSGAPPPS [Agonist P161] | 119 nM | 6.61 nM | 4260 nM | 
IHSDAVFTDNYTRLRKQVAAKKYLQSIKNKRYGGPSSGAPPPS [Agonist P105] |  |  |  | IC50 (human VPAC1): 263 nM; IC50 (human VPAC2 [2]): 5.41 nM; IC50 (human PAC1): 127 nM
HSDAVFTDNYTREKEKVAAKKYLQSIKNKRYGGPSSGAPPPS [Agonist P87] | 636 nM | 1110 nM |  | EC50 (human VPAC2 [1]): > 10000 nM
H-HSDGVFTDNYTRLRKQVAAKKYLQSIKNKRYGGPSSGAPPPS [Agonist P102] |  |  |  | IC50 (human VPAC1): 184 nM; IC50 (human VPAC2 [2]): 15.4 nM; IC50 (human PAC1): 55 nM
H-H[dA]DAVFTDNYTRLRKQVAAKKYLQSIKNKRYGGPSSGAPPPS [Agonist P47] | 124 nM | 0.84 nM |  | 
HSDAVFTDNYTRLRRQVAAKKYLQSIKNKRYGGPSSGAPPPS [Agonist P72] | 159 nM | 1.52 nM |  | 
HSDAVFTDNYTRLRRQVAARRYLQSIRNRRYGGPSSGAPPPS [Agonist P71] | 73.1 nM | 1.52 nM |  | 
Hexanoyl-HSDAVFTDNYTRLRKQVAAKKTLQSIKNKRYGGPSSGAPPPS [Agonist P131] | 1370 nM | 5.67 nM | 632 nM | 
Hexanoyl-HHSDAVFTDNYTRLLAKLALQKYLQSIKNKRYGGPSSGAPPPS [Agonist P191] | 1280 nM | 60.6 nM | > 25000 nM | 
[Met(O)]HSDAVFTDNYTRLRKQVAAKKYLQSIKNKRYGGPSSGAPPPS [Agonist P199] |  |  |  | IC50 (human VPAC1): 429 nM; IC50 (human VPAC2 [2]): 8.26 nM; IC50 (human PAC1): 244 nM
Hexanoyl-HSDAVFTDNYTRLRKQVAAKKVLQSIKNKRYGGPSSGAPPPS [Agonist P134] | 833 nM | 2.13 nM | 479 nM | 
Hexanoyl-HSDAVFTRNYTRLRKQVAAKKYLQSIKNKRYGGPSSGAPPPS [Agonist P162] | 5.14 nM | 3.72 nM | 186 nM | 
HSDAVFTDNYTRLRKQVAAKKYLQSIKRGGPSSGAPPPS [Agonist P82] | 195 nM | 1.9 nM |  | 
HSDAVFTDNYTRLRKQVAAKKYLQSIKKGGPSSGAPPPS [Agonist P85] | 226 nM | 1.7 nM |  | 
HSDAVWTDNYTRLRKQVAAKKYLQSIKNKRYGGPSSGAPPPS [P67] |  |  |  | EC50 cAMP, Alpha Screen (human VPAC2 receptor): 94.1 nM
[dH]SDAVFTDNYTRLRKQVAAKKYLQSIKNKRYGGPSSGAPPPS [P84] |  |  |  | EC50 cAMP, Alpha Screen (human VPAC2 receptor): 185 nM
HSDAVFTDNYTRLRKQVAAKKYLQSIKNKKGGPSSGAPPPS [P9] |  |  |  | EC50 cAMP, DiscoveRx (human VPAC2 receptor): 2.41 nM
Hexanoyl-HSDAVFTDNYTRLRKQVAAQKYLNQLKKGGPSSGAPPPS [P144] |  |  |  | EC50 cAMP, Alpha Screen (human VPAC2 receptor): 0.32 nM
HSDAVFTDNYTRLRKQVAAKKYLQSIKNKRGGT [P7] |  |  |  | EC50 cAMP, DiscoveRx (human VPAC2 receptor): 2.78 nM
HSDAVFTDNYTRLRKQVAAKKYLQSIKNKKGGT [P8] |  |  |  | EC50 cAMP, DiscoveRx (human VPAC2 receptor): 1.61 nM
Hexanoyl-HSDAVFTDNYTRLRKQVAAKKYLQ[Aib]IKNKRYGGPSSGAPPPS (ends and bridges not checked) [P187] |  |  |  | EC50 cAMP, Alpha Screen (human VPAC2 receptor): 0.4 nM
Hexanoyl-HSDAVFTDNYTRLRKQVAAKKYLQSIKNKRGGPSSGAPPPS [P123] |  |  |  | EC50 cAMP, Alpha Screen (human VPAC2 receptor): 0.12 nM
Hexanoyl-HSDAVFTDNYTRLRKQVAAKKYLQSIKNSRGGPSSGAPPPS [P122] |  |  |  | EC50 cAMP, Alpha Screen (human VPAC2 receptor): 0.14 nM
Hexanoyl-H[Aib]DAVFTDNYTRLRKQVAAKKYLQSIKNKRYGGPSSGAPPPS (ends and bridges not checked) [P166] |  |  |  | EC50 cAMP, Alpha Screen (human VPAC2 receptor): 0.15 nM
